Measured values reported in patent publication US12390447B2, “Sirtuin 6 protein deacylase (SIRT6) activators” (Wisconsin Alumni Research Foundation, priority 2019, dated 2025).

Columns and labels:
SIRT6 = SIRT6 (Homo sapiens, UniProt Q8N6T7); experiment: Histone deacetylation assay with acid extracted histones, H3K9ac immunoblot; type: biochemical; details: 50 μM compound; histones 75 μg/mL from SAHA-treated HEK293T cells; SIRT6 1 μM
Experimental: HEK293T cells were cultured in Dulbecco's Modified Eagle Medium supplemented with 10% fetal bovine serum. Cells were treated with 10 μM SAHA for 24 hours prior to harvest. Cells were trypsinized and pelleted prior to washing twice with ice-cold PBS. Cells were then resuspended in 800 μL ice-cold 10 mM HEPES pH 7.4, 10 mM KCl, 0.05% NP-40, and histone deacetylase and protease inhibitors (1 mM sodium butyrate, 4 μM trichostatin A, 100 μM phenylmethylsulfonyl fluoride, 10 μg/mL leupeptin, and 10 μg/mL aprotinin) for 20 minutes. After a 1,000×g 10 minute spin at 4° C. the pelleted nuclei were resuspended in 0.2 M HCl and incubated on ice for 20 minutes. Following 10 minute spin at 21,000×g at 4° C. the acid extracted supernatant was neutralized with 1 M Tris-HCl pH 8 prior to BCA protein concentration measurement. Histone deacetylation assays were ran with 75 μg/mL extracted histones, 1 μM SIRT6, 50 μM CL5, CL5D or 5% DMSO control, 0.5 mM NAD^+, in 20 mM potassium phosphate pH 7.5. Reactions ran at 37° C. prior to quench with SDS loading dye and 5 minute boil. 540 ng of nuclei acid extract following sirtuin reaction were loaded for 15% SDS-PAGE followed by transfer to nitrocellulose. Membrane was blocked with 1% milk before blotted with anti-H3K9ac (Active Motiff 39917) 1:3000 and imaged. […] Bands were quantified using Image Studio Lite (LiCor). […]

SIRT6 K81A = SIRT6 K81A (Homo sapiens, UniProt Q8N6T7, K81A); experiment: Steady-state deacetylation rate of SIRT6 K81A with or without CL5D; type: biochemical; details: SIRT6 K81A 1 μM, H3K9ac 40 μM, CL5D 50 μM, 25 minutes
Experimental: All sirtuin deacylation assays were carried out at 37° C. in 20 mM potassium phosphate pH 7.5 with 0.5 mM NAD^+, 10% DMSO, and 20 μM H3K9ac or H3K9myr peptides, unless otherwise noted in legend, and quenched by the addition of 2% TFA final. Steady-state reactions were constrained to less than 20% substrate turnover to prevent product inhibition. A variety of times were required to monitor SIRT6 deacetylation (2-60 minutes) under this restraint given the ability to strongly activate catalysis. In these cases, specific activities were determined and either reported as is or as fold-activation of specific activity. Deacylation reactions were analyzed by reversed phase high-performance liquid chromatography on a Kinetex C18 column (100 Å, 100×4.6 mm, 2.6 μm, Phenomenex) by monitoring the formation of the deacylated product at 214 nm. Deacetylation reactions were analyzed using a gradient of 33-100% B (30% acetonitrile with 0.05% TFA) in 8 min at 1.6 mL min^−1. Demyristoylation reactions were analyzed using a gradient of 3 to 100% B (acetonitrile with 0.05% TFA) in 10 min at 1.6 mL min^−1. The product and substrate peaks were quantified and ratio of these allowed for quantification of product formation. Three independent experiments were performed for each condition with averages being plotted and error bars representing the standard deviation of these replicates. […]

Chain of SIRT6 (Q8N6T7 whole entry): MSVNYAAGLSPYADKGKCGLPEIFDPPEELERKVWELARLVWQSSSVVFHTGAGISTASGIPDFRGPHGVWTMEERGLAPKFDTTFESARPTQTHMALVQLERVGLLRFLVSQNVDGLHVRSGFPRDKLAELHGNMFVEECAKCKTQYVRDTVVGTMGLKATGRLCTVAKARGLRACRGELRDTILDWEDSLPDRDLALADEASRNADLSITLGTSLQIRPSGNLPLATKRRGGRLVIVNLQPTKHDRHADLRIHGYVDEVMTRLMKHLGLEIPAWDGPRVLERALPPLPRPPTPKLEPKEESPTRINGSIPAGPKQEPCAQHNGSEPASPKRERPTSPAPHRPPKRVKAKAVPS
Chain of SIRT6 K81A (Q8N6T7 whole entry K81A): as the sequence (Q8N6T7 whole entry) above, with K81A counted along it

O=C(O)c1ccc2c(c1)C(=O)N(c1ccc(N(C(=O)c3c(Cl)cc(Cl)cc3Cl)C(=O)c3c(Cl)cc(Cl)cc3Cl)c(Cl)c1)C2=O [CL-5D, 2-(3-chloro-4-(2,4,6-trichloro-N-(2,4,6-trichlorobenzoyl)benzamido)phenyl)-1,3-dioxoisoindoline-5-carboxylic acid]
SIRT6 deacetylation at H3K9 of whole histone substrate (in words) (SIRT6): stimulated
RateCL5D (SIRT6 K81A): 0.125 ± 0.003 µM/min
